From US10597388B2, “Pyridazinone herbicides” (FMC CORPORATION, priority 2014, dated 2020)

Assays:
Format in all cases: in vivo
[1] = test system: foxtail, giant (giant foxtail, Setaria faberii); assay: Test A greenhouse herbicide test, pre- and postemergence
In short: (§1)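 Seeds sown in loam–sand blend got a preemergence directed soil spray of compound in non-phytotoxic solvent with surfactant. Postemergence treatment was given at 2–10 cm, one- to two-leaf stage. After ~10 d in greenhouse, injury was rated visually vs untreated controls, 0 (no effect) to 100 (complete control).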

kochia (Kochia scoparia) = assay: as above
In short: as §1

[2] = test system: pigweed (Amaranthus retroflexus); assay: as above
In short: as §1

[3] = test system: ragweed (common ragweed, Ambrosia elatior); assay: as above
In short: as §1

[4] = test system: wheat (Triticum aestivum); assay: as above; conditions: Postemergence; for Plant response rating, Wheat: 125 g ai/ha, 0 to 100 scale where 0 is no effect and 100 is complete control; for Wheat plant response rating: 500 g ai/ha, 0 to 100 scale, 0 is no effect, 100 is complete control
In short: as §1

[5] = test system: blackgrass (Alopecurus myosuroides); assay: Test C greenhouse herbicide test, pre- and postemergence
Text: (§2) Seeds of plant species selected from blackgrass (Alopecurus myosuroides), ryegrass, Italian (Italian ryegrass, Lolium multiflorum), wheat (winter wheat, Triticum aestivum), galium (catchweed bedstraw, Galium aparine), corn (Zea mays), large crabgrass, large (large crabgrass, Digitaria sanguinalis), foxtail, giant (giant foxtail, Setaria faberii), johnsongrass (Sorghum halepense), lambsquarters (Chenopodium album), morningglory (Ipomoea coccinea), nutsedge, yellow (yellow nutsedge, Cyperus esculentus), pigweed (Amaranthus retroflexus), ragweed (common ragweed, Ambrosia elatior), soybean (Glycine max), barnyardgrass (Echinochloa crus-galli), oilseed rape (Brassica napus), waterhemp (common waterhemp, Amaranthus rudis), and velvetleaf (Abutilon theophrasti) were planted into a blend of loam soil and sand and treated preemergence with test chemicals formulated in a non-phytotoxic solvent mixture which included a surfactant.
(§3) At the same time, plants selected from these crop and weed species and also chickweed (common chickweed, Stellaria media), kochia (Kochia scoparia), and oat, wild (wild oat, Avena fatua), were planted in pots containing Redi-Earth® planting medium (Scotts Company, 14111 Scottslawn Road, Marysville, Ohio 43041) comprising spaghnum peat moss, vermiculite, wetting agent and starter nutrients and treated with postemergence applications of test chemicals formulated in the same manner. Plants ranged in height from 2 to 18 cm (1- to 4-leaf stage) for postemergence treatments. Treated plants and controls were maintained in a greenhouse for 13 to 15 d, after which time all species were compared to controls and visually evaluated. Plant response ratings, summarized in Table C, are based on a scale of 0 to 100 where 0 is no effect and 100 is complete control. A dash (-) response means no test result.

corn (Zea mays) = assay: as above
Text: as §2, §3

[6] = test system: morningglory (Ipomoea coccinea); assay: as above
Text: as §2, §3

[7] = test system: pigweed (Amaranthus retroflexus); assay: as above
Text: as §2, §3

[8] = test system: ryegrass, Italian (Italian ryegrass, Lolium multiflorum); assay: as above
Text: as §2, §3

[9] = test system: velvetleaf (Abutilon theophrasti); assay: as above
Text: as §2, §3

[10] = Postemergence, 125 g ai/ha, visual rating after approx. 10 d, 0 to 100 scale (0 no effect, 100 complete control)
[11] = Postemergence, 500 g ai/ha, 0 to 100 scale, 0 is no effect, 100 is complete control
[12] = Preemergence, 125 g ai/ha, 0 to 100 scale where 0 is no effect and 100 is complete control
[13] = Preemergence, 500 g ai/ha, 0 to 100 scale, 0 no effect, 100 complete control
[14] = Postemergence, 31 g ai/ha, 0 to 100 scale (0 no effect, 100 complete control)
[15] = Postemergence, 125 g ai/ha, scale 0 to 100, 0 is no effect, 100 is complete control
[16] = Postemergence, 250 g ai/ha, scale 0 to 100, 0 no effect, 100 complete control, 13 to 15 d
[17] = postemergence, 62 g ai/ha, scale 0 to 100, 0 no effect, 100 complete control
[18] = Preemergence, 31 g ai/ha, scale 0 to 100, 0 is no effect, 100 is complete control
[19] = Preemergence, 62 g ai/ha, scale 0 to 100, 0 is no effect, 100 is complete control
[20] = Preemergence, 125 g ai/ha, scale 0 to 100, 0 is no effect, 100 is complete control
[21] = Preemergence, 250 g ai/ha, scale 0 to 100, 0 no effect, 100 complete control

Compound: Cc1ccc2sc(C)c(-c3c(OC(=O)C(C)(C)C)c(C)nn(C)c3=O)c2c1 [Compound 26]
- Plant response rating, Foxtail, Giant [1, 10]: 10
- Foxtail, Giant plant response rating [1, 11]: 60
- Foxtail, Giant plant response rating [1, 12]: 30
- Plant response rating, Foxtail, Giant [1, 13]: 50
- Plant response rating, Kochia (kochia (Kochia scoparia); [10]): 80
- Kochia plant response rating (kochia (Kochia scoparia); [11]): 90
- Kochia plant response rating (kochia (Kochia scoparia); [12]): 30
- Plant response rating, Kochia (kochia (Kochia scoparia); [13]): 30
- Plant response rating, Pigweed [2, 10]: 80
- Pigweed plant response rating [2, 11]: 90
- Pigweed plant response rating [2, 12]: 80
- Plant response rating, Pigweed [2, 13]: 100
- Plant response rating, Ragweed [3, 10]: 60
- Ragweed plant response rating [3, 11]: 90
- Ragweed plant response rating [3, 12]: 20
- Plant response rating, Ragweed [3, 13]: 40
- Plant response rating, Wheat [4]: 0
- Wheat plant response rating [4]: 0
- Blackgrass plant response rating [5, 14]: 50
- Plant response rating, Blackgrass [5, 15]: 60
- Plant response rating, Blackgrass [5, 16]: 75
- Blackgrass plant response rating [5, 17]: 55
- Corn plant response rating (corn (Zea mays); [14]): 0
- Plant response rating, Corn (corn (Zea mays); [15]): 5
- Plant response rating, Corn (corn (Zea mays); [16]): 5
- Corn plant response rating (corn (Zea mays); [17]): 10
- Morningglory plant response rating [6, 14]: 98
- Plant response rating, Morningglory [6, 15]: 100
- Plant response rating, Morningglory [6, 16]: 100
- Morningglory plant response rating [6, 17]: 100
- Pigweed plant response rating [7, 14]: 75
- Plant response rating, Pigweed [7, 15]: 98
- Plant response rating, Pigweed [7, 16]: 95
- Pigweed plant response rating [7, 17]: 85
- Ryegrass, Italian plant response rating [8, 14]: 85
- Plant response rating, Ryegrass, Italian [8, 15]: 90
- Plant response rating, Ryegrass, Italian [8, 16]: 90
- Ryegrass, Italian plant response rating [8, 17]: 90
- Velvetleaf plant response rating [9, 14]: 5
- Plant response rating, Velvetleaf [9, 15]: 60
- Plant response rating, Velvetleaf [9, 16]: 70
- Velvetleaf plant response rating [9, 17]: 30

Compound: Cc1ccc2ccccc2c1-c1c(O)c(I)nn(C)c1=O [Compound 29]
- Plant response rating, Foxtail, Giant [1, 10]: 80
- Foxtail, Giant plant response rating [1, 11]: 90
- Foxtail, Giant plant response rating [1, 12]: 80
- Plant response rating, Foxtail, Giant [1, 13]: 90
- Plant response rating, Kochia (kochia (Kochia scoparia); [10]): 80
- Kochia plant response rating (kochia (Kochia scoparia); [11]): 90
- Kochia plant response rating (kochia (Kochia scoparia); [12]): 60
- Plant response rating, Kochia (kochia (Kochia scoparia); [13]): 100
- Plant response rating, Pigweed [2, 10]: 90
- Pigweed plant response rating [2, 11]: 100
- Pigweed plant response rating [2, 12]: 100
- Plant response rating, Pigweed [2, 13]: 100
- Plant response rating, Ragweed [3, 10]: 90
- Ragweed plant response rating [3, 11]: 100
- Ragweed plant response rating [3, 12]: 90
- Plant response rating, Ragweed [3, 13]: 90
- Plant response rating, Wheat [4]: 40
- Wheat plant response rating [4]: 60
- Blackgrass plant response rating [5, 14]: 40
- Plant response rating, Blackgrass [5, 15]: 60
- Plant response rating, Blackgrass [5, 16]: 75
- Plant response rating, Blackgrass [5, 18]: 50
- Plant response rating, Blackgrass [5, 19]: 50
- Plant response rating, Blackgrass [5, 20]: 85
- Blackgrass plant response rating [5, 21]: 85
- Blackgrass plant response rating [5, 17]: 50
- Corn plant response rating (corn (Zea mays); [14]): 0
- Plant response rating, Corn (corn (Zea mays); [15]): 30
- Plant response rating, Corn (corn (Zea mays); [16]): 20
- Plant response rating, Corn (corn (Zea mays); [18]): 0
- Plant response rating, Corn (corn (Zea mays); [19]): 0
- Plant response rating, Corn (corn (Zea mays); [20]): 0
- Corn plant response rating (corn (Zea mays); [21]): 45
- Corn plant response rating (corn (Zea mays); [17]): 10
- Morningglory plant response rating [6, 14]: 85
- Plant response rating, Morningglory [6, 15]: 100
- Plant response rating, Morningglory [6, 16]: 100
- Plant response rating, Morningglory [6, 18]: 80
- Plant response rating, Morningglory [6, 19]: 95
- Plant response rating, Morningglory [6, 20]: 95
- Morningglory plant response rating [6, 21]: 98
- Morningglory plant response rating [6, 17]: 100
- Pigweed plant response rating [7, 14]: 95
- Plant response rating, Pigweed [7, 15]: 98
- Plant response rating, Pigweed [7, 16]: 98
- Plant response rating, Pigweed [7, 18]: 100
- Plant response rating, Pigweed [7, 19]: 100
- Plant response rating, Pigweed [7, 20]: 100
- Pigweed plant response rating [7, 21]: 100
- Pigweed plant response rating [7, 17]: 95
- Ryegrass, Italian plant response rating [8, 14]: 70
- Plant response rating, Ryegrass, Italian [8, 15]: 85
- Plant response rating, Ryegrass, Italian [8, 16]: 95
- Plant response rating, Ryegrass, Italian [8, 18]: 90
- Plant response rating, Ryegrass, Italian [8, 19]: 90
- Plant response rating, Ryegrass, Italian [8, 20]: 90
- Ryegrass, Italian plant response rating [8, 21]: 90
- Ryegrass, Italian plant response rating [8, 17]: 80
- Velvetleaf plant response rating [9, 14]: 35
- Plant response rating, Velvetleaf [9, 15]: 85
- Plant response rating, Velvetleaf [9, 16]: 90
- Plant response rating, Velvetleaf [9, 19]: 90
- Plant response rating, Velvetleaf [9, 20]: 100
- Velvetleaf plant response rating [9, 21]: 100
- Velvetleaf plant response rating [9, 17]: 80
